# How the values were obtained:
# [1] = target: Tyrosine-protein kinase ABL1 (Homo sapiens, UniProt P00519); experiment: Inhibition of recombinant human ABL1 expressed in insect cells assessed as remaining activity at 10 uM preincubated for 15 mins followed by poly(Glu:Tyr) substrate addition for 30 mins in presence of [gamma-32P]ATP by […] assay
# [2] = target: Tyrosine-protein kinase ABL2 (Homo sapiens) (UniProt P42684); experiment: Inhibition of human recombinant ARG expressed in sf21 cells assessed as remaining activity at 10 uM preincubated for 15 mins followed by Poly(Glu:Tyr) addition measured after 30 mins in presence of [gamma-32P]ATP by […] assay
# [3] = target: Vascular endothelial growth factor receptor 3 (Homo sapiens) (UniProt P35916); experiment: Inhibition of recombinant human FLT4 expressed in insect cells assessed as remaining activity at 10 uM preincubated for 15 mins followed by poly(Glu:Tyr) substrate addition for 30 mins in presence of [gamma-32P]ATP by […] assay
# [4] = Elimination half life in Sprague-Dawley rat at 5 mg/kg, iv by LC/MS/MS analysis; format: ADME, organism-based; conditions: in vivo, read-out: beta t1/2 (converted)
# [5] = target: Aurora kinase A (Homo sapiens) (UniProt O14965); experiment: Inhibition of recombinant human AURORA A expressed in insect Sf21 cells assessed as remaining activity at 10 uM preincubated for 15 mins followed by Kemptide substrate addition for 30 mins in presence of [gamma-32P]ATP by […] assay
# [6] = target: Platelet-derived growth factor receptor beta (Homo sapiens) (UniProt P09619); experiment: Inhibition of recombinant human PDGFR-beta expressed in insect Sf21 cells assessed as remaining activity at 10 uM preincubated for 15 mins followed by poly(Glu:Tyr) substrate addition for 30 mins in presence of [gamma-32P]ATP by […] assay
# [7] = target: Serine-protein kinase ATM (Homo sapiens) (UniProt Q13315); experiment: Inhibition of human ATM assessed as remaining activity at 10 uM preincubated for 15 mins followed by substrate addition for 30 mins in presence of [gamma-32P]ATP by […] assay
# [8] = target: Mitogen-activated protein kinase 1 (Homo sapiens) (UniProt P28482); experiment: Inhibition of recombinant human MAPK1 expressed in Escherichia coli assessed as remaining activity at 10 uM preincubated for 15 mins followed by myelin basic protein substrate addition for 30 mins in presence of [gamma-32P]ATP by […] assay
# [9] = Volume of distribution at steady state in Sprague-Dawley rat at 5 mg/kg, iv up to 24 hrs by LC/MS/MS analysis; format: ADME, organism-based; conditions: in vivo, read-out: Vdss
# [10] = target: Non-receptor tyrosine-protein kinase TYK2 (Homo sapiens) (UniProt P29597); experiment: Inhibition of human TYK2 assessed as remaining activity at 10 uM in presence of [gamma-32P]ATP by […] assay
# [11] = target: Protein kinase C alpha type (Homo sapiens) (UniProt P17252); experiment: Inhibition of recombinant human PKC-alpha expressed in insect Sf9 cells assessed as remaining activity at 10 uM preincubated for 15 mins followed by Histone substrate addition for 30 mins in presence of [gamma-32P]ATP by […] assay
# [12] = target: PI3-kinase p110-delta/p85-alpha (Homo sapiens) (UniProt P27986+O00329); experiment: Inhibition of PI3K p110delta/p85alpha (unknown origin) assessed as remaining activity at 10 uM in presence of [gamma-32P]ATP by […] assay; format: protein-complex assay
# [13] = target: Inhibitor of nuclear factor kappa-B kinase subunit alpha (Homo sapiens) (UniProt O15111); experiment: Inhibition of recombinant human IKK-alpha expressed in insect Sf21 cells assessed as remaining activity at 10 uM preincubated for 15 mins followed by IKKtide substrate addition for 30 mins in presence of [gamma-32P]ATP by […] assay
# [14] = target: Mitogen-activated protein kinase 8 (Homo sapiens) (UniProt P45983); experiment: Inhibition of recombinant human JNK1alpha1 expressed in insect Sf21 cells assessed as remaining activity at 10 uM preincubated for 15 mins followed by ATF2 substrate addition for 30 mins in presence of [gamma-32P]ATP by […] assay
# [15] = target: Ribosomal protein S6 kinase alpha-5 (Homo sapiens) (UniProt O75582); experiment: Inhibition of recombinant human MSK1 expressed in insect Sf21 cells assessed as remaining activity at 10 uM preincubated for 15 mins followed by Crosstide KK substrate addition for 30 mins in presence of [gamma-32P]ATP by […] assay
# [16] = target: Fibroblast growth factor receptor 1 (Homo sapiens) (UniProt P11362); experiment: Inhibition of recombinant human FGFR1 expressed in insect Sf21 cells assessed as remaining activity at 10 uM preincubated for 15 mins followed by poly(Glu:Tyr) substrate addition for 30 mins in presence of [gamma-32P]ATP by […] assay
# Angiopoietin-1 receptor = Angiopoietin-1 receptor (Homo sapiens, UniProt Q02763); experiment: Inhibition of human TIE2 preincubated for 15 mins followed by substrate addition measured after 30 mins in presence of [gamma-32P]ATP by […] assay
# [17] = AUC (0 to infinity) in Sprague-Dawley rat at 5 mg/kg, iv up to 24 hrs by LC/MS/MS analysis; format: ADME, organism-based; set-up: dose 5 mg/kg, route intravenous, time infinity; conditions: in vivo
# [18] = target: Dual specificity mitogen-activated protein kinase kinase 6 (Homo sapiens) (UniProt P52564); experiment: Inhibition of human MKK6 assessed as remaining activity at 10 uM in presence of [gamma-32P]ATP by […] assay
# [19] = Metabolic stability in rat liver microsomes assessed as compound remaining at 1 uM after 30 mins in presence of NADPH by HPLC-MS analysis; format: ADME; conditions: liver microsomes, read-out: Stability
# [20] = target: Rho-associated protein kinase 2 (Homo sapiens) (UniProt O75116); experiment: Inhibition of human recombinant ROCK-2 expressed in sf21 cells assessed as remaining activity at 10 uM preincubated for 15 mins followed by Long S6 kinase substrate addition measured after 30 mins in presence of [gamma-32P]ATP by […] assay
# [21] = target: Dual specificity mitogen-activated protein kinase kinase 7 (Homo sapiens) (UniProt O14733); experiment: Inhibition of human MKK7beta assessed as remaining activity at 10 uM in presence of [gamma-32P]ATP by […] assay
# cells = conditions: Homo sapiens, HL-60, 48 h
# Description: Growth inhibition of human HL60 cells expressing wild type FLT-3 after 48 hrs by XTT assay
# [22] = target: Aurora kinase B (Homo sapiens) (UniProt Q96GD4); experiment: Inhibition of human AURORA B assessed as remaining activity at 10 uM preincubated for 15 mins followed by substrate addition for 30 mins in presence of [gamma-32P]ATP by […] assay
# [23] = target: PI3K p110 beta/p85 alpha (Homo sapiens) (UniProt P27986+P42338); experiment: Inhibition of PI3K p110beta/p85alpha (unknown origin) assessed as remaining activity at 10 uM in presence of [gamma-32P]ATP by […] assay; format: protein-complex assay
# PI3K p110 beta/p85 alpha (Homo sapiens), sequence (P27986 2-724 limits assumed): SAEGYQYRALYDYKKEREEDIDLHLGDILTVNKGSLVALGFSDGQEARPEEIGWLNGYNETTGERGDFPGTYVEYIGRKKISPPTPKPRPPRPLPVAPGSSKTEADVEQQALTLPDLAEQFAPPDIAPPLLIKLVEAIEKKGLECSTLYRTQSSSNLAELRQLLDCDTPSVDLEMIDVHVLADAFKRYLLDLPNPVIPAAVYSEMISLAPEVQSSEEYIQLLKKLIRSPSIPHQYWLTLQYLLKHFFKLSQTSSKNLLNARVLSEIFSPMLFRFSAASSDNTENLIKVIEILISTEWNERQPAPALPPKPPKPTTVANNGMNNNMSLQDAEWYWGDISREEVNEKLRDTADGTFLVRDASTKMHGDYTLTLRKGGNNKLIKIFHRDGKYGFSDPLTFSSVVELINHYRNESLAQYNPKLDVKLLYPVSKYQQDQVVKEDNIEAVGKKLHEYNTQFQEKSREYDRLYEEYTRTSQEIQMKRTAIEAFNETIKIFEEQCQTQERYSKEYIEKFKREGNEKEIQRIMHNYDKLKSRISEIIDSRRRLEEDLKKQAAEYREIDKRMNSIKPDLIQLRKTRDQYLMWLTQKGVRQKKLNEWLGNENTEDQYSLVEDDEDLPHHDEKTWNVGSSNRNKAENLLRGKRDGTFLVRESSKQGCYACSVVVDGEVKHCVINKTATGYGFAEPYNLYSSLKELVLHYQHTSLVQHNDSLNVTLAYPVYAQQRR
# PI3K p110 beta/p85 alpha (Homo sapiens), sequence (P42338 whole entry partner): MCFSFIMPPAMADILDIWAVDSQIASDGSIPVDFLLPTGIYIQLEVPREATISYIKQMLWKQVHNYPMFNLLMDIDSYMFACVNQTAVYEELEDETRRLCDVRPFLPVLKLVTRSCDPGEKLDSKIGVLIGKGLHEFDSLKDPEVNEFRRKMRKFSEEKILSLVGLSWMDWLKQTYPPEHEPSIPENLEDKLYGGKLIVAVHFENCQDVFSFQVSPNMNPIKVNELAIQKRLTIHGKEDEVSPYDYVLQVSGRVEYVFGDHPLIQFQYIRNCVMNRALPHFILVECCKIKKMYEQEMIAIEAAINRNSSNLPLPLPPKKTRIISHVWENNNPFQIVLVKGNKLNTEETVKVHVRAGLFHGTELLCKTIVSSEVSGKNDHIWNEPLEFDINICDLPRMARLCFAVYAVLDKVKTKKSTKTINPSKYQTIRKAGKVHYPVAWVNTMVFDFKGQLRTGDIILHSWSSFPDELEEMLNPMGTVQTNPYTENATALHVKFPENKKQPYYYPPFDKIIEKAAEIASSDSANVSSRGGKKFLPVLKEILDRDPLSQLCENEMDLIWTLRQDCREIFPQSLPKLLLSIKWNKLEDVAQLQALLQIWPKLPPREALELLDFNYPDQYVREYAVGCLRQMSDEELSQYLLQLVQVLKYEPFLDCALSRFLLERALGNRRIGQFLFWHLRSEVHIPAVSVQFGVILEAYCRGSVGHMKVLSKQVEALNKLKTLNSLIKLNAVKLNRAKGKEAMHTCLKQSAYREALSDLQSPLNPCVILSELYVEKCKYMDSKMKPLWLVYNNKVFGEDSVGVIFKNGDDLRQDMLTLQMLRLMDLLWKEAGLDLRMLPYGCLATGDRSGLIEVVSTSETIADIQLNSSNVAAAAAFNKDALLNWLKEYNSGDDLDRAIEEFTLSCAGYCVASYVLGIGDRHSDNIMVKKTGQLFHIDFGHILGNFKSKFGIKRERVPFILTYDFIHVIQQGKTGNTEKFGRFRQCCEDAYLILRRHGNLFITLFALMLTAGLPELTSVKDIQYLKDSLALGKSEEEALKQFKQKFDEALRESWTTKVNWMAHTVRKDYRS
# Tyrosine-protein kinase ABL2 (Homo sapiens), sequence (P42684 whole entry): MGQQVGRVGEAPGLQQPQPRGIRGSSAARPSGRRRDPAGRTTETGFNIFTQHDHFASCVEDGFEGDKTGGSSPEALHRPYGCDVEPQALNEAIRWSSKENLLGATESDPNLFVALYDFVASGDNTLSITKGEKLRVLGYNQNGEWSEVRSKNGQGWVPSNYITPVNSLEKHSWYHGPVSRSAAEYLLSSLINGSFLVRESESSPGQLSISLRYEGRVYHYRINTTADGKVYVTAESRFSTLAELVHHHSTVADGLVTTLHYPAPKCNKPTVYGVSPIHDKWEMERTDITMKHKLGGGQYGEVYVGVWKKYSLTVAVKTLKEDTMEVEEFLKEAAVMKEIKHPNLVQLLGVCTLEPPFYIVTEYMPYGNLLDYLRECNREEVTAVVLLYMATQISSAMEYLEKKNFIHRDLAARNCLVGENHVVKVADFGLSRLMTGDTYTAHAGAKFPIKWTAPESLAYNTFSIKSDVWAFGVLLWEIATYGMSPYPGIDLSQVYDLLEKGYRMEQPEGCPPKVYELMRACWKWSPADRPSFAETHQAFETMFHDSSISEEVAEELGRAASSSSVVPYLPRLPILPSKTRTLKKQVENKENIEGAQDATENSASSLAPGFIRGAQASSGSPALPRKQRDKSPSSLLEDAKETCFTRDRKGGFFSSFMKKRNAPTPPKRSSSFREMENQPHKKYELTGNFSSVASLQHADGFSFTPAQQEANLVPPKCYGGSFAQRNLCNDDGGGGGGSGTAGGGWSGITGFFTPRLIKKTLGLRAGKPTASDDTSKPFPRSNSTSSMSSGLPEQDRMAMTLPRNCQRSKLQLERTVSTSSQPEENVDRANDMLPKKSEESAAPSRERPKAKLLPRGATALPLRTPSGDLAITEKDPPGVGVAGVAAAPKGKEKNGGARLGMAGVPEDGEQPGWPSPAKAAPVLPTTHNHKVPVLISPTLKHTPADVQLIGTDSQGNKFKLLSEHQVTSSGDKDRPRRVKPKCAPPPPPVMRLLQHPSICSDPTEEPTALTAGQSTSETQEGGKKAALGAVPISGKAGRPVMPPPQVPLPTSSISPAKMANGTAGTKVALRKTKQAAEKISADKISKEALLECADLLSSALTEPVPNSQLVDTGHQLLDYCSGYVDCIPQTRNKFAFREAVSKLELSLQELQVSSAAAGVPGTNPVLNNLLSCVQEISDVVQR
# Vascular endothelial growth factor receptor 3 (Homo sapiens), sequence (P35916 whole entry): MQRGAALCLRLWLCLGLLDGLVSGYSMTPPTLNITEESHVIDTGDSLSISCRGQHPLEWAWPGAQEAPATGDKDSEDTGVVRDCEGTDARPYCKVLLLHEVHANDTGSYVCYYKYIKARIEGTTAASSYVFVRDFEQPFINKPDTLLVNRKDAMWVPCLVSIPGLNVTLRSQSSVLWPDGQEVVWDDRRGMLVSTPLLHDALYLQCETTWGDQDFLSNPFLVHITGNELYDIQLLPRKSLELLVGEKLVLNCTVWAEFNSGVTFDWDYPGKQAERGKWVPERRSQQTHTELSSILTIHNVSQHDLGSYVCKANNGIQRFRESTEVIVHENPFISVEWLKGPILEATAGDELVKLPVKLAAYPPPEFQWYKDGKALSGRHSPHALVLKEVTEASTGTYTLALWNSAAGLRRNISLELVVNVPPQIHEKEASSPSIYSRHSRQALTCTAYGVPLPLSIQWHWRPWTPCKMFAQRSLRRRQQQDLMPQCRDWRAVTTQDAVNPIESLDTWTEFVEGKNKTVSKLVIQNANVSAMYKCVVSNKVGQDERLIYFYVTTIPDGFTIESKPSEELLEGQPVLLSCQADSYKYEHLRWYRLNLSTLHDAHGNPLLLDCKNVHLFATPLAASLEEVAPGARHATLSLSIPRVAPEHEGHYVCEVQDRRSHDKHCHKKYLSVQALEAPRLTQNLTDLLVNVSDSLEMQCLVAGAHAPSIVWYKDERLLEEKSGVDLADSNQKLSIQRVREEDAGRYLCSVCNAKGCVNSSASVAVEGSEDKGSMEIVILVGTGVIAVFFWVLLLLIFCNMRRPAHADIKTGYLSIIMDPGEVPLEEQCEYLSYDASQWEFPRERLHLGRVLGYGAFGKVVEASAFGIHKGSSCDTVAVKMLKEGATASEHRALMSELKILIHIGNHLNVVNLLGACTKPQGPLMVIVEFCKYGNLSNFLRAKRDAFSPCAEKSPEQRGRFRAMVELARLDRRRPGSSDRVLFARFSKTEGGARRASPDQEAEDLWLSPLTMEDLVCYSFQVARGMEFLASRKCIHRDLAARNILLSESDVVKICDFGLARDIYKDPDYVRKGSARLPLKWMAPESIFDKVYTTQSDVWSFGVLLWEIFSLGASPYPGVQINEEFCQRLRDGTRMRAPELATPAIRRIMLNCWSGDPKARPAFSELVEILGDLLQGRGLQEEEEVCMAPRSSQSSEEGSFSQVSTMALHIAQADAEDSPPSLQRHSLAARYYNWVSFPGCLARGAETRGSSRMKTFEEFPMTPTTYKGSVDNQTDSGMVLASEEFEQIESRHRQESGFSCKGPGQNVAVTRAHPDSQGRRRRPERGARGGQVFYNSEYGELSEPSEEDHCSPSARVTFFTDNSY
# Dual specificity mitogen-activated protein kinase kinase 7 (Homo sapiens), sequence (O14733 whole entry): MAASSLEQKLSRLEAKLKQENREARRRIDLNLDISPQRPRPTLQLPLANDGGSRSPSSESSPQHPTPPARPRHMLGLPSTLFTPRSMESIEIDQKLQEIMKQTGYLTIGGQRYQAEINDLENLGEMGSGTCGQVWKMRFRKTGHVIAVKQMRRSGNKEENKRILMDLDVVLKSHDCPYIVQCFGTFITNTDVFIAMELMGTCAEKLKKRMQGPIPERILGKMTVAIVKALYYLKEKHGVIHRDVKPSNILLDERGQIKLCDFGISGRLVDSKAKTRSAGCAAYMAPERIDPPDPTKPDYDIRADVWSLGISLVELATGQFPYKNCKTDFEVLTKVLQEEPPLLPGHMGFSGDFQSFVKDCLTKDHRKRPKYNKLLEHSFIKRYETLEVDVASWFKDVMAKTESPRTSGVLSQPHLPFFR
# Dual specificity mitogen-activated protein kinase kinase 6 (Homo sapiens), sequence (P52564 whole entry): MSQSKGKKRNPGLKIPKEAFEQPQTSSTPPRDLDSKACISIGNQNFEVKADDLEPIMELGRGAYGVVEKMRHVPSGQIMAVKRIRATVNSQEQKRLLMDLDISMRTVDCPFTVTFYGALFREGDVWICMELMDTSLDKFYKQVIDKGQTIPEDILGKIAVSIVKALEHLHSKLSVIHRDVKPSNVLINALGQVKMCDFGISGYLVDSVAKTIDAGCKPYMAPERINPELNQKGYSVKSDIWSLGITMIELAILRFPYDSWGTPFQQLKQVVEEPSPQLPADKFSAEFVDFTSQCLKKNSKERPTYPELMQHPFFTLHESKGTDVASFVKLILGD
structure (smiles),measurement,setting,value
CNCCOc1ccc(-c2sc3nc(-c4cccs4)nc(NN4C(=O)C=C(C)C4=O)c3c2C)cc1.Cl,Activity,[1],11%
same,Activity,[2],52%
same,Activity,[3],24%
same,half-life,[4],7.61 h
same,Activity,[5],67%
same,Activity,[6],88%
same,Activity,[7],30%
same,Activity,[8],114%
same,Vd,[9],8.22 L/kg
same,Activity,[10],67%
same,Activity,[11],81%
same,Activity,[12],37%
same,Activity,[13],101%
same,Activity,[14],96%
same,Activity,[15],110%
same,Activity,[16],53%
same,IC50,Angiopoietin-1 receptor,9.75 µM
same,AUC(0-inf),[17],2120 ng·h/mL
same,Activity,[18],102%
same,"remaining at 0.5 h, 1 µM",[19],67.1%
same,Activity,[20],93%
same,Activity,[21],111%
same,GI50,cells,0.25 µM
same,Activity,[22],42%
same,Activity,[23],70%

# Source: ChEMBL document CHEMBL3856191, “Structural modifications at the 6-position of thieno[2,3-d]pyrimidines and their effects on potency at FLT3 for treatment of acute myeloid leukemia” (Eur J Med Chem, 2016)
